In ChEMBL document CHEMBL1127867, “5-Membered ring heterocyclic carboxylic acids as angiotensin II antagonists” (Bioorg Med Chem Lett, 1994) one finds pA2 data, which are given here for 16 molecules.

The term pA2 denotes the negative logarithm of the molar antagonist concentration that doubles the agonist concentration needed for the same response.

The test has as its target Angiotensin II receptor (Oryctolagus cuniculus). As to the kind of experiment: Tested in vitro for angiotensin II induced antagonistic activity in rabbit aorta, expressed as pA2.

On to `CCCN(Cc1ccc(-c2ccccc2-c2nn[nH]n2)cc1)c1nn(C)cc1C(=O)O`, for which the pA2 is on record as 7.94.

`CCCCN(Cc1ccc(-c2ccccc2-c2nn[nH]n2)cc1)c1c(C(=O)O)ncn1C` came in with a pA2 of 6.46.

`CCCc1nc(N(CCC)Cc2ccc(-c3ccccc3-c3nn[nH]n3)cc2)sc1C(=O)O` yielded a pA2 of 7.43.

For `CCCN(Cc1ccc(-c2ccccc2-c2nn[nH]n2)cc1)c1nsnc1C(=O)O`, the pA2 came out at 9.

Molecule `CCCN(Cc1ccc(-c2ccccc2-c2nn[nH]n2)cc1)c1ncc(C(=O)O)s1` returned a pA2 of 7.87.

For the molecule `CCCN(Cc1ccc(-c2ccccc2-c2nn[nH]n2)cc1)c1nc(C(F)(F)F)c(C(=O)O)s1`, the pA2 was determined as 7.56.

Turning to `CCCCN(Cc1ccc(-c2ccccc2-c2nn[nH]n2)cc1)c1snnc1C(=O)O`, the pA2 amounted to 8.36.

In turn, `CCCCN(Cc1ccc(-c2ccccc2-c2nn[nH]n2)cc1)c1scnc1C(=O)O` had a pA2 of 8.2. The pA2 values of the last two molecules are within 0.2 log units of each other.

The molecule `CCCCCCN(Cc1ccc(-c2ccccc2-c2nn[nH]n2)cc1)c1ncc(C(=O)O)s1` registered a pA2 of 7.34.

Regarding `CCCN(Cc1ccc(-c2ccccc2-c2nn[nH]n2)cc1)c1nc(C)c(C(=O)O)s1`, the pA2 came to 8.63.

In turn, `CCCCN(Cc1ccc(-c2ccccc2-c2nn[nH]n2)cc1)c1nnn(CCCC)c1C(=O)O` showed a pA2 of 8.86.

In the case of `CCCCN(Cc1ccc(-c2ccccc2-c2nn[nH]n2)cc1)c1ncc(C(=O)O)s1`, the pA2 was determined as 8.8.

Molecule `CCCCN(Cc1ccc(-c2ccccc2-c2nn[nH]n2)cc1)c1nnn(C)c1C(=O)O` displayed a pA2 of 8.6.

In turn, `CCCc1nc(NCc2ccc(-c3ccccc3-c3nn[nH]n3)cc2)sc1C(=O)O` displayed a pA2 of under 6.

Take `CCCCN(Cc1ccc(-c2ccccc2-c2nn[nH]n2)cc1)c1c(C(=O)O)cnn1C`: the pA2 was under 7.

Take `O=C(O)c1cnc(NCc2ccc(-c3ccccc3-c3nn[nH]n3)cc2)s1`: the pA2 is under 6.
